One molecule from patent publication US20240024494A1, “SMALL-MOLECULE CONJUGATE AND USE THEREOF” (SHANGHAI MEWSGEN BIOTECHNOLOGY CO., LTD, priority 2020, published 2024) can be followed below.

The target in assay [1] is hERG potassium channel (Homo sapiens, UniProt Q12809). The assay is described as follows: cell-based.
Protocol: CHO-hERG cells were cultured in a 175-cm^2 culture flask. After a cell density reached a culture solution was removed, and the cells were washed once with 7 mL of phosphate buffered saline (PBS) and digested with 3 mL of detachin. After the complete digestion, 7 mL of a culture solution was added for neutralization, the mixture was centrifuged, a supernatant was sucked away, and then 5 mL of the culture solution was added for resuspension so as to ensure that the cell density was 2-5×10^6/mL.
Forming processes of single-cell high-impedance sealing and whole-cell mode were both automatically completed by a Qpatch instrument. After a whole-cell recording mode was obtained, cells were clamped at −80 millivolts. Before a depolarization stimulation of +40 millivolt for 5 seconds was given, a preset voltage of −50 millivolts was firstly given for 50 milliseconds, then repolarization was performed to −50 millivolt and maintained for 5 seconds, and then the voltage returned to −80 millivolts. […] At least 3 cells (n≥3) were tested per concentration.
20 mM of a compound stock was diluted in DMSO, and 10 μL of 20 mM of the compound stock was added to 20 μL of a DMSO solution and triply serially diluted to 6 DMSO concentrations. […] Experimental data was analyzed by a GraphPad Prism 5.0 software.
Assay [2] relates to KYSE-150 (human esophageal squamous carcinoma cells). The class given is cell-based. The conditions noted are these: 72 h.

SMILES strings stand for the structures.

Sequence of hERG potassium channel (Q12809 whole entry): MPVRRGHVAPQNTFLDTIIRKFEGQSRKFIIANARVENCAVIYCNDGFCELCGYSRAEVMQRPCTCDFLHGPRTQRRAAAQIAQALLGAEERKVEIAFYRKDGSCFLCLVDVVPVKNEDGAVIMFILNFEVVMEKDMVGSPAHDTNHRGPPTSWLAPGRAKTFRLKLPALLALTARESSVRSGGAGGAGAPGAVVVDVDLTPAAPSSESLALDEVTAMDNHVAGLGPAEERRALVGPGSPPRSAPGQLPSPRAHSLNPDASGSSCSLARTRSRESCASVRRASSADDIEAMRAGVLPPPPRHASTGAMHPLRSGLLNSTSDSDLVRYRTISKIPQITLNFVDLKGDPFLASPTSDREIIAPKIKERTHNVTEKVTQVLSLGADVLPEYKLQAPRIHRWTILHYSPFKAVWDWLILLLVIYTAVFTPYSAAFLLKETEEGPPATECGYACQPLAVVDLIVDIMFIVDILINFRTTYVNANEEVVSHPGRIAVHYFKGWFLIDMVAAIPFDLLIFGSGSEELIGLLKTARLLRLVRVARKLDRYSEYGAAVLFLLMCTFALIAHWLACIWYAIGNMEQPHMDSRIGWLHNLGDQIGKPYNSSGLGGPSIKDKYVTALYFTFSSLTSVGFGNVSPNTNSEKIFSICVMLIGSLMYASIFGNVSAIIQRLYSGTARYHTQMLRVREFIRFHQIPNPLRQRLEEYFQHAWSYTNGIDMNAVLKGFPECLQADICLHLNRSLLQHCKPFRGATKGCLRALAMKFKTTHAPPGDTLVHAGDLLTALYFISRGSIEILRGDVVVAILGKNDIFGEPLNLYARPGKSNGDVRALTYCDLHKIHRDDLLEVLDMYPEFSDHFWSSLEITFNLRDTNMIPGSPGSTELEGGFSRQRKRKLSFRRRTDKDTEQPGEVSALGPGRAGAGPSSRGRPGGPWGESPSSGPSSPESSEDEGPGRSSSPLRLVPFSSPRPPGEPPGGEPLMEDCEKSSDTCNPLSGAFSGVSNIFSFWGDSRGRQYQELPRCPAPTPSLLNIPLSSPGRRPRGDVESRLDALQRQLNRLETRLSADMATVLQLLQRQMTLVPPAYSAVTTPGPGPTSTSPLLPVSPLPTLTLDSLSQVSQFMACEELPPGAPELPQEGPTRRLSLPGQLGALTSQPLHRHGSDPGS

As to `COc1cc(C(=O)NCCOCCOCCOCCOCCC(=O)N[C@@H](C(=O)N[C@@H](CCCNC(N)=O)C(=O)Nc2ccc(COC(=O)N3CCN(C(=O)O[C@H]4CC[C@@]5(C)[C@H](CC[C@@H]6[C@@H]5[C@H](O)C(=O)[C@]5(C)[C@@H](c7ccc(=O)oc7)CC[C@]65O)C4)CC3)cc2)C(C)C)ccc1NC(=O)[C@@H]1N[C@@H](CC(C)(C)C)[C@](C#N)(c2ccc(Cl)cc2F)[C@H]1c1cccc(Cl)c1F` [Compound I-1], the figures for the IC50 in assay [1] and in assay [2] were more than 40 µM and 0.04 µM, respectively.
